{"source": "patent US20240190860A1", "about": "“8-CYCLO-SUBSTITUTED QUINAZOLINE DERIVATIVES AS LPA RECEPTOR 2 INHIBITORS” (CHIESI FARMACEUTICI S.p.A., priority 2021, published 2024)", "data": [{"target": "T1, human recombinant LPA2 expressed in CHO cells (Homo sapiens, UniProt Q9HBW0)", "T1 construct": "expressed in transfected cells; host or cells: CHO cells (CHO-hLPA2 cell line)", "T1 sequence (Q9HBW0 whole entry)": "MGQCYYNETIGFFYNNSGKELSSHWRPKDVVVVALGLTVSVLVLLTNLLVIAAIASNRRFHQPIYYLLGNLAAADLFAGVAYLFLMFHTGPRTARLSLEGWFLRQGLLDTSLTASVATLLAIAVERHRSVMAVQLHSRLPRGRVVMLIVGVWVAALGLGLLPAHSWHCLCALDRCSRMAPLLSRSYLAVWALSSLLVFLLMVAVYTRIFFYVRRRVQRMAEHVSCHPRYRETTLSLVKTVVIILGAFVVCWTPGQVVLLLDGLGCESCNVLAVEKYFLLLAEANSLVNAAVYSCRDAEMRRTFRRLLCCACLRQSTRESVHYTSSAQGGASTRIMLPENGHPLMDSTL", "experiment": "FLIPR calcium mobilization assay, LPA2 antagonism in CHO-hLPA2 cells", "format": "cell-based", "conditions": "CHO-hLPA2 cells, inhibition of LPA EC80 Ca2+ response, 30 min pre-incubation; read-out: LPA2 IC50", "description": "The effectiveness of compounds of the present invention as LPA2 antagonist can be determined at the human recombinant LPA2 expressed in CHO cells, using a FLIPR assay in 384 well format.\nCHO-hLPA2 cell lines are cultured in a humidified incubator at 5% C02 in DMEM/F-12 (1:1) MIXTURE with 2 mM Glutamax, supplemented with 10% of Foetal Bovine Serum, 1 mM Sodium Pyruvate, 11 mM Hepes and 1× Penicillin/Streptomycin. CHO hLPA2 cells are seeded into black walled clear-bottom 384-well plates (#781091, Greiner Bio-One GmbH) at a density of 7,500 cells per well in 50 μl culture media and grown overnight in a 37° C. humidified CO2-incubator. Serial dilutions (1:3 or 1:4, 11 points CRC) of compounds are performed in 100% DMSO at 200× the final concentration. The compounds are diluted 1:50 prior to the experiment with Assay Buffer (20 mM HEPES, 145 mM NaCl, 5 mM KCl, 5.5 mM glucose, 1 mM MgCl2 and 2 mM CaCl2, pH 7.4 containing 0.01% Pluronic F-127) to obtain a solution corresponding to […] the final concentration in the assay (4×, 2% DMSO). The final concentration of DMSO in the assay will be 0.5% in each well. Medium is removed by aspiration and cells are then incubated with 30 μl of a loading solution containing 5 μM of the cytoplasmic Ca2+ indicator Cal-520 AM in Assay Buffer containing 2.5 mM probenecid for 30 min at 37° C. incubator (cell loading). The loaded cell plates are transferred into the FLIPR instrument and calcium responses are monitored during the on-line addition protocols. For testing of compounds, after the cell loading, 10 μl/well of 4× antagonists' solution was added onto the cells. After 30 min pre-incubation (at 37° C.), 10 μl/well of 5× concentrated LPA EC80 was added and Ca2+ mobilization responses was followed during the on-line addition protocol. Intracellular peak fluorescence values subtracted by baseline fluorescence are exported and analysed to determine IC50 values, respectively. The calcium response is expressed as percentage of the maximal inhibition of the EC80 agonist response.\nThe raw data (peak height expressed as relative fluorescence units) are normalized and transformed into “percent of inhibition”. Curve fitting and pIC50 (−LogIC50) estimations are carried out using a four-parameter logistic model using XLfit Software.", "units": {"IC50": "nM"}, "values": [{"molecule": "C[C@@H](CN1CCN(S(=O)(=O)c2ccc3[nH]c(=O)sc3c2)CC1)Nc1ncnc2c(-c3ccc(F)c(CN(C)C)c3)cccc12", "note": "[Example 97, 6-({4-[(2S)-2-[(8-{3-[(dimethylamino)methyl]-4-fluorophenyl}quinazolin-4-yl)amino]propyl]piperazin-1-yl}sulfonyl)-2,3-dihydro-1,3-benzothiazol-2-one]", "IC50": "< 10"}, {"molecule": "Cc1ccc(-c2cccc3c(N[C@@H](C)CN4CCN(S(=O)(=O)c5ccc6c(c5)sc(=O)n6C)CC4)ncnc23)cn1", "note": "[Example 100, 3-methyl-6-({4-[(2S)-2-{[8-(6-methylpyridin-3-yl)quinazolin-4-yl]amino}propyl]piperazin-1-yl}sulfonyl)-2,3-dihydro-1,3-benzothiazol-2-one]", "IC50": "10 to 100"}, {"molecule": "COC(=O)Nc1nc(C)c(S(=O)(=O)N2CCN(C[C@H](C)Nc3ncnc4c(-c5cccnc5C)cccc34)CC2)s1", "note": "[Example 48, methyl N-[4-methyl-5-({4-[(2S)-2-{[8-(2-methylpyridin-3-yl)quinazolin-4-yl]amino}propyl]piperazin-1-yl}sulfonyl)-1,3-thiazol-2-yl]carbamate]", "IC50": "< 10"}, {"molecule": "Cc1cc(-c2ccc(S(=O)(=O)N3CCN(C[C@H](C)Nc4ncnc5c(N6CCCC6)cccc45)CC3)s2)on1", "note": "[Example 20, N-[(2S)-1-(4-{[5-(3-methyl-1,2-oxazol-5-yl)thiophen-2-yl]sulfonyl}piperazin-1-yl)propan-2-yl]-8-(pyrrolidin-1-yl)quinazolin-4-amine]", "IC50": "< 10"}, {"molecule": "C[C@@H](CN1CCN(S(=O)(=O)c2cccnc2)CC1)Nc1ncnc2c(-c3cn(C)nc3C(F)(F)F)cccc12", "note": "[Example 104, 8-[1-methyl-3-(trifluoromethyl)-1H-pyrazol-4-yl]-N-[(2S)-1-[4-(pyridine-3-sulfonyl)piperazin-1-yl]propan-2-yl]quinazolin-4-amine]", "IC50": "10 to 100"}, {"molecule": "COC(=O)Nc1nc(C)c(S(=O)(=O)N2CCN(C[C@H](C)Nc3ncnc4c(-c5cnc(C)nc5)cccc34)CC2)s1", "note": "[Example 34, methyl N-[4-methyl-5-({4-[(2S)-2-{[8-(2-methylpyrimidin-5-yl)quinazolin-4-yl]amino}propyl]piperazin-1-yl}sulfonyl)-1,3-thiazol-2-yl]carbamate]", "IC50": "10 to 100"}, {"molecule": "C[C@@H](CN1CCN(S(=O)(=O)c2ccc3[nH]c(=O)[nH]c(=O)c3c2)CC1)Nc1ncnc2c(-c3cccc(CN(C)C)c3)cccc12", "note": "[Example 77, 6-({4-[(2S)-2-[(8-{3-[(dimethylamino)methyl]phenyl}quinazolin-4-yl)amino]propyl]piperazin-1-yl}sulfonyl)-1,2,3,4-tetrahydroquinazoline-2,4-dione]", "IC50": "< 10"}, {"molecule": "COC(=O)Nc1nc(C)c(S(=O)(=O)N2CCN(C[C@H](C)Nc3ncnc4c(-c5cnc(C)cn5)cccc34)CC2)s1", "note": "[Example 2, methyl N-[4-methyl-5-({4-[(2S)-2-{[8-(5-methylpyrazin-2-yl)quinazolin-4-yl]amino}propyl]piperazin-1-yl}sulfonyl)-1,3-thiazol-2-yl]carbamate]", "IC50": "10 to 100"}, {"molecule": "CC(=O)N1CCc2cc(S(=O)(=O)N3CCN(C[C@H](C)Nc4ncnc5c(-c6cn(C)nc6C(F)(F)F)cccc45)CC3)ccc21", "note": "[Example 68, 1-[5-({4-[(2S)-2-({8-[1-methyl-3-(trifluoromethyl)-1H-pyrazol-4-yl]quinazolin-4-yl}amino)propyl]piperazin-1-yl}sulfonyl)-2,3-dihydro-1H-indol-1-yl]ethan-1-one]", "IC50": "< 10"}, {"molecule": "Cc1cc(-c2cc(S(=O)(=O)N3CCN(C[C@H](C)Nc4ncnc5c(-c6cccc(CN(C)C)c6)cccc45)CC3)cs2)on1", "note": "[Example 93, 8-{3-[(dimethylamino)methyl]phenyl}-N-[(2S)-1-(4-{[5-(3-methyl-1,2-oxazol-5-yl)thiophen-3-yl]sulfonyl}piperazin-1-yl)propan-2-yl]quinazolin-4-amine]", "IC50": "< 10"}, {"molecule": "Cc1cc(-c2ccc(S(=O)(=O)N3CCN(C[C@H](C)Nc4ncnc5c(-c6ccccn6)cccc45)CC3)s2)on1", "note": "[Example 12, N-[(2S)-1-(4-{[5-(3-methyl-1,2-oxazol-5-yl)thiophen-2-yl]sulfonyl}piperazin-1-yl)propan-2-yl]-8-(pyridin-2-yl)quinazolin-4-amine]", "IC50": "< 10"}, {"molecule": "Cc1nc(C)c(-c2cccc3c(N[C@@H](C)CN4CCN(S(=O)(=O)c5ccc6[nH]c(=O)sc6c5)CC4)ncnc23)s1", "note": "[Example 98, 6-({4-[(2S)-2-{[8-(2,4-dimethyl-1,3-thiazol-5-yl)quinazolin-4-yl]amino}propyl]piperazin-1-yl}sulfonyl)-2,3-dihydro-1,3-benzothiazol-2-one]", "IC50": "< 10"}, {"molecule": "C[C@@H](CN1CCN(S(=O)(=O)c2ccc(Cl)c(Cl)c2)CC1)Nc1ncnc2c(-c3cccnc3)cccc12", "note": "[Example 31, N-[(2S)-1-[4-(3,4-dichlorobenzenesulfonyl)piperazin-1-yl]propan-2-yl]-8-(pyridin-3-yl)quinazolin-4-amine]", "IC50": "< 10"}, {"molecule": "Cc1cc(C(=O)Nc2nc(C)c(S(=O)(=O)N3CCN(C[C@H](C)Nc4ncnc5c(-c6cccnc6)cccc45)CC3)s2)no1", "note": "[Example 33, 5-methyl-N-[4-methyl-5-({4-[(2S)-2-{[8-(pyridin-3-yl)quinazolin-4-yl]amino}propyl]piperazin-1-yl}sulfonyl)-1,3-thiazol-2-yl]-1,2-oxazole-3-carboxamide]", "IC50": "< 10"}, {"molecule": "C[C@@H](CN1CCN(S(=O)(=O)c2ccc(F)c(F)c2)CC1)Nc1ncnc2c(-c3cccnc3)cccc12", "note": "[Example 52, N-[(2S)-1-[4-(3,4-difluorobenzenesulfonyl)piperazin-1-yl]propan-2-yl]-8-(pyridin-3-yl)quinazolin-4-amine]", "IC50": "10 to 100"}, {"molecule": "C[C@@H](CN1CCN(S(=O)(=O)c2ccc3[nH]c(=O)[nH]c(=O)c3c2)CC1)Nc1ncnc2c(-c3cccnc3)cccc12", "note": "[Example 51, 6-({4-[(2S)-2-{[8-(pyridin-3-yl)quinazolin-4-yl]amino}propyl]piperazin-1-yl}sulfonyl)-1,2,3,4-tetrahydroquinazoline-2,4-dione]", "IC50": "< 10"}, {"molecule": "Cc1cc(-c2ccc(S(=O)(=O)N3CCN(C[C@H](C)Nc4ncnc5c(-c6sc(C)nc6C)cccc45)CC3)s2)on1", "note": "[Example 7, 8-(2,4-dimethyl-1,3-thiazol-5-yl)-N-[(2S)-1-(4-{[5-(3-methyl-1,2-oxazol-5-yl)thiophen-2-yl]sulfonyl}piperazin-1-yl)propan-2-yl]quinazolin-4-amine]", "IC50": "< 10"}, {"molecule": "COC(=O)Nc1nc(C)c(S(=O)(=O)N2CCN(C[C@H](C)Nc3ncnc4c(-c5ccc(C)nc5C)cccc34)CC2)s1", "note": "[Example 92, methyl N-[5-({4-[(2S)-2-{[8-(2,6-dimethylpyridin-3-yl)quinazolin-4-yl]amino}propyl]piperazin-1-yl}sulfonyl)-4-methyl-1,3-thiazol-2-yl]carbamate]", "IC50": "< 10"}, {"molecule": "COC(=O)Nc1nc(C)c(S(=O)(=O)N2CCN(C[C@H](C)Nc3ncnc4c(-c5cnn(C)c5C)cccc34)CC2)s1", "note": "[Example 64, methyl N-[5-({4-[(2S)-2-{[8-(1,5-dimethyl-1H-pyrazol-4-yl)quinazolin-4-yl]amino}propyl]piperazin-1-yl}sulfonyl)-4-methyl-1,3-thiazol-2-yl]carbamate]", "IC50": "< 10"}, {"molecule": "COC(=O)Nc1nc(C)c(S(=O)(=O)N2CCN(C[C@H](C)Nc3ncnc4c(-c5ccc6c(c5)CN(C)C6)cccc34)CC2)s1", "note": "[Example 80, methyl N-[4-methyl-5-({4-[(2S)-2-{[8-(2-methyl-2,3-dihydro-1H-isoindol-5-yl)quinazolin-4-yl]amino}propyl]piperazin-1-yl}sulfonyl)-1,3-thiazol-2-yl]carbamate]", "IC50": "< 10"}, {"molecule": "COC(=O)Nc1ncc(S(=O)(=O)N2CCN(C[C@H](C)Nc3ncnc4c(-c5cccnc5)cccc34)CC2)s1", "note": "[Example 47, methyl N-[5-({4-[(2S)-2-{[8-(pyridin-3-yl)quinazolin-4-yl]amino}propyl]piperazin-1-yl}sulfonyl)-1,3-thiazol-2-yl]carbamate]", "IC50": "< 10"}, {"molecule": "COC(=O)Nc1nc(C)c(S(=O)(=O)N2CCN(C[C@H](C)Nc3ncnc4c(-c5cccc(CN(C)C)c5C)cccc34)CC2)s1", "note": "[Example 89, methyl N-[5-({4-[(2S)-2-[(8-{3-[(dimethylamino)methyl]-2-methylphenyl}quinazolin-4-yl)amino]propyl]piperazin-1-yl}sulfonyl)-4-methyl-1,3-thiazol-2-yl]carbamate]", "IC50": "< 10"}]}]}
